The test system of data set [1] is PC-12. In words: Efficacy in PC12 cells assessed by recovery of NAD+ at 30 uM. Type of data set: functional, Rattus norvegicus.
Data set [2] concerns PC-12. In words: Potency in PC12 cells assessed by recovery of NAD+ at 1 uM. The format is functional, Rattus norvegicus.
Data set [3] in a line: Aqueous solubility of compound. Type of data set: physicochemical. The settings on record: water (aqueous).
Data set [4] has as its system PC-12. The data set can be described thus: Potency in PC12 cells assessed by recovery of NAD+ at 10 uM. Type of data set: functional, Rattus norvegicus.

As a reminder, the solubility is the dissolved amount per volume that the medium holds. The low end stands for a poorly soluble substance, the high end for a readily soluble substance.

≈ marks a conversion by molar mass, not a printed value.

In the case of `Cc1ccc2[nH]c3c4c(c5c(c3c2c1)CNC5=O)CCC4`, the Efficacy in the data set on PC-12 [1] turned out to be 50%. This molecule also displayed an Activity in the data set with PC-12 [2] of 17%.

As for `O=C1NCc2c1c1c(c3[nH]c4ccccc4c23)CCC1`, the Activity is on record as 48% in the data set on PC-12 [2] and 68% in the data set on PC-12 [4]. Also, the solubility in data set [3] was below 1 µg/mL.

`CN(Cc1ccccn1)C(=O)c1ccc2[nH]c3c4c(c5c(c3c2c1)CNC5=O)CCC4` yielded an Efficacy in the data set on PC-12 [1] of 44%. The same molecule displayed an Activity in the data set on PC-12 [2] of 11%.

In the data set with PC-12 [1], `CN(Cc1ccncc1)C(=O)c1ccc2[nH]c3c4c(c5c(c3c2c1)CNC5=O)CCC4` had an Efficacy of 101%. In addition, the Activity in the data set on PC-12 [2] is listed as 23%.

In the data set on PC-12 [1], `CN(CCc1c[nH]cn1)C(=O)c1ccc2[nH]c3c4c(c5c(c3c2c1)CNC5=O)CCC4` returned an Efficacy of 39%. This molecule displayed an Activity in the data set with PC-12 [2] of 5%.

`O=C1NCc2c1c1c(c3[nH]c4ccc(C(=O)N5CCOCC5)cc4c23)CCC1`: the Efficacy in the data set on PC-12 [1] stood at 74%. The molecule further registered an Activity with PC-12 [2] of 18%.

As to `CN(C)CCNC(=O)c1ccc2[nH]c3c4c(c5c(c3c2c1)CNC5=O)CCC4`, the Efficacy with PC-12 [1] is 36%. In the data set on PC-12 [2], this molecule displayed an Activity of 6%.

For the molecule `NCc1ccc2[nH]c3c4c(c5c(c3c2c1)CNC5=O)CCC4`, the Efficacy in the data set with PC-12 [1] is 102%. The Activity in the data set with PC-12 [2] is 39%. The amount in solution in data set [3] (solubility) came to 100 µg/mL (≈ 343 µM).

On to `O=C(O)c1ccc2[nH]c3c4c(c5c(c3c2c1)CNC5=O)CCC4`, for which, in the data set with PC-12 [1], the Efficacy is listed as 65%. The Activity in the data set on PC-12 [2] was 24%.

Regarding `O=C(NCCN1CCOCC1)c1ccc2[nH]c3c4c(c5c(c3c2c1)CNC5=O)CCC4`, the Efficacy with PC-12 [1] was found to be 27%. The Activity with PC-12 [2] worked out at 7%.

For `NCCCCC(N)C(=O)NCc1ccc2[nH]c3c4c(c5c(c3c2c1)CNC5=O)CCC4` (stereo not given), in the data set with PC-12 [1], the Efficacy is reported as 48%. In addition, in the data set with PC-12 [2], the Activity amounted to 2%.

Consider `O=C1NCc2c1c1c(c3[nH]c4ccc(Cl)cc4c23)CCC1`, for which the Efficacy with PC-12 [1] came to 133%. For the same molecule, in the data set on PC-12 [2], the Activity was determined as 26%.

In the data set on PC-12 [1], `O=C(NCCn1ccnn1)c1ccc2[nH]c3c4c(c5c(c3c2c1)CNC5=O)CCC4` came in with an Efficacy of 28%. The molecule also yielded an Activity in the data set with PC-12 [2] of 12%.

In the data set on PC-12 [1], `COC(=O)c1ccc2[nH]c3c4c(c5c(c3c2c1)CNC5=O)CCC4` gave an Efficacy of 134%. Further, the Activity in the data set with PC-12 [2] worked out at 38%.

`N#Cc1ccc2[nH]c3c4c(c5c(c3c2c1)CNC5=O)CCC4`: the Efficacy with PC-12 [1] amounted to 122%. In addition, the values for the Activity in the data set on PC-12 [2] and with PC-12 [4] were 26% and 74%, respectively.

In the case of `O=C1NCc2c1c1c(c3[nH]c4ccc(Br)cc4c23)CCC1`, the figures for the Activity in the data set on PC-12 [2] and with PC-12 [4] were 28% and 47%, respectively.

The values above are taken from ChEMBL document CHEMBL1138164, “Synthesis and structure-activity relationships of novel pyrrolocarbazole lactam analogs as potent and cell-permeable inhibitors of poly(ADP-ribose)polymerase-1 (PARP-1)” (Bioorg Med Chem Lett, 2006).
